Data taken from PubChem BioAssay (NCI).
“And” between values parts separate entries of the source, which are not always exact repeats. Identical values can stand only once.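 Cells were grown in 96-well plates and exposed to each compound for 48 hours at five concentrations; endpoints were interpolated linearly between bracketing concentrations, or set to the highest concentration if not reached. The concentration for 50% growth inhibition is given as GI50. The concentration for full growth arrest is given as TGI.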

How the values were obtained:
Assay in all cases: inhibition of tumour cell growth, NCI panel, 48 h
K-562 leukemia = system: K-562 leukemia
HCT-15 colon = system: HCT-15 colon
SNB-19 CNS = system: SNB-19 CNS
HOP-62 NSCLC = system: HOP-62 NSCLC
SK-MEL-28 melanoma = system: SK-MEL-28 melanoma
NCI-H226 lung = system: NCI-H226 lung
KM12 colon = system: KM12 colon
OVCAR-8 ovarian = system: OVCAR-8 ovarian
M14 melanoma = system: M14 melanoma
A498 renal = system: A498 renal

## Cn1nc(C(F)(F)F)cc1-c1cc(Cl)c(OCc2ccc(Cl)cc2)c(-c2ccc(Cl)c(C(F)(F)F)c2)c1O
K-562 leukemia
  GI50: 0.312 µM
  TGI: 5.08 µM
HCT-15 colon
  GI50: 0.764 µM
  TGI: 4.4 µM
SNB-19 CNS
  GI50: 1.16 µM
  TGI: 6.72 µM
HOP-62 NSCLC
  GI50: 1.26 µM
  TGI: 3.3 µM
SK-MEL-28 melanoma
  GI50: 1.14 µM
  TGI: 3.53 µM
NCI-H226 lung
  GI50: 1.36 µM
  TGI: 4.3 µM
KM12 colon
  GI50: 1.38 µM
  TGI: 5.07 µM
OVCAR-8 ovarian
  GI50: 1.2 µM
  TGI: 5.41 µM
M14 melanoma
  GI50: 1.16 µM
  TGI: 2.93 µM
A498 renal
  GI50: 0.251 µM
  TGI: 1.09 µM

## CC12CCC(C1)C(C)(C)C2OC(=O)c1ccccc1N (centres undefined)
K-562 leukemia
  TGI: 32.1 µM
HCT-15 colon
  TGI: 33.7 µM
SNB-19 CNS
  TGI: 31.9 µM
HOP-62 NSCLC
  TGI: 32.4 µM
SK-MEL-28 melanoma
  TGI: 31.9 µM
KM12 colon
  TGI: 38 µM
OVCAR-8 ovarian
  TGI: 38.5 µM
M14 melanoma
  TGI: 31.6 µM
A498 renal
  TGI: 28.6 µM

## Cc1[nH]nc(C(F)(F)F)c1Cc1sc2c(c1C(=O)N1C[C@](C)(O)CO1)c(=O)n(C)c(=O)n2C(C)C
K-562 leukemia
  TGI: > 100 µM
HCT-15 colon
  GI50: > 100 µM
  TGI: > 100 µM
SNB-19 CNS
  GI50: > 100 µM
  TGI: > 100 µM
HOP-62 NSCLC
  GI50: > 100 µM
  TGI: > 100 µM
SK-MEL-28 melanoma
  GI50: > 100 µM
  TGI: > 100 µM
NCI-H226 lung
  GI50: > 100 µM
  TGI: > 100 µM
KM12 colon
  GI50: > 100 µM
  TGI: > 100 µM
OVCAR-8 ovarian
  GI50: > 100 µM
  TGI: > 100 µM
M14 melanoma
  GI50: > 100 µM
  TGI: > 100 µM
A498 renal
  GI50: 47.3 µM
  TGI: > 100 µM

## CCC(=O)OCOc1ccc(/C=C2\CCC(CN(C)C)C2=O)cc1 (centres undefined)
K-562 leukemia
  TGI: 4.66 µM
HCT-15 colon
  TGI: 9.97 µM
SNB-19 CNS
  TGI: 32.5 µM
HOP-62 NSCLC
  TGI: 33.5 µM
SK-MEL-28 melanoma
  TGI: 9.73 µM
NCI-H226 lung
  TGI: 31.8 µM
KM12 colon
  TGI: 13 µM
OVCAR-8 ovarian
  TGI: 11.2 µM
M14 melanoma
  TGI: 9.23 µM
A498 renal
  TGI: 30.6 µM

## Cc1cc(OCc2ccc(C(F)(F)F)cc2)c2c(c1)C(=O)C=C(NCCN1CCCC1)C2=O
K-562 leukemia
  GI50: 2.41 µM
  TGI: 6.18 µM
HCT-15 colon
  GI50: 1.95 µM
  TGI: 4.82 µM
SNB-19 CNS
  GI50: 2.46 µM
  TGI: 6.2 µM
HOP-62 NSCLC
  GI50: 3.44 µM
  TGI: 13.2 µM
SK-MEL-28 melanoma
  GI50: 1.69 µM
  TGI: 3.36 µM
NCI-H226 lung
  GI50: 14.6 µM
  TGI: 35.2 µM
KM12 colon
  GI50: 4.39 µM
  TGI: 15.4 µM
OVCAR-8 ovarian
  GI50: 3.25 µM
  TGI: 12.1 µM
M14 melanoma
  GI50: 1.88 µM
  TGI: 3.56 µM
A498 renal
  GI50: 2.69 µM
  TGI: 12.8 µM

## O=C1C=CC2C3C(=O)N(c4ccccc4)C(=O)C3C1N2Cc1ccccc1 (centres undefined)
K-562 leukemia
  GI50: 1.67 µM
  TGI: 6.55 µM
HCT-15 colon
  GI50: 1.74 µM
  TGI: 3.89 µM
SNB-19 CNS
  GI50: 6.04 µM
  TGI: 13.2 µM
HOP-62 NSCLC
  TGI: 5.26 µM
SK-MEL-28 melanoma
  GI50: 3.02 µM
  TGI: 11.3 µM
NCI-H226 lung
  TGI: 13.8 µM
KM12 colon
  GI50: 2.56 µM
  TGI: 7.43 µM
OVCAR-8 ovarian
  GI50: 2.88 µM
  TGI: 10.1 µM
M14 melanoma
  GI50: 2.6 µM
  TGI: 7.12 µM
A498 renal
  GI50: 8.57 µM
  TGI: 22.8 µM

## OC1OCC(COc2cc(Cl)c(Cl)cc2Cl)OC1O (centres undefined)
K-562 leukemia
  TGI: > 100 µM
HCT-15 colon
  TGI: 44.6 µM
SNB-19 CNS
  TGI: > 100 µM
HOP-62 NSCLC
  TGI: > 100 µM
SK-MEL-28 melanoma
  TGI: > 100 µM
NCI-H226 lung
  TGI: > 100 µM
KM12 colon
  TGI: > 100 µM
OVCAR-8 ovarian
  TGI: > 100 µM
M14 melanoma
  TGI: > 100 µM
A498 renal
  TGI: > 100 µM

## Oc1c(C(c2ccc(F)cc2)N2CCCCC2)ccc2cncnc12 (centres undefined)
K-562 leukemia
  GI50: 0.503 µM
  TGI: > 100 µM
HCT-15 colon
  GI50: 2.11 µM
  TGI: > 100 µM
SNB-19 CNS
  GI50: 0.396 µM
  TGI: > 100 µM
HOP-62 NSCLC
  GI50: 0.513 µM
  TGI: > 100 µM
SK-MEL-28 melanoma
  GI50: 0.71 µM
  TGI: > 100 µM
NCI-H226 lung
  GI50: 1.19 µM
  TGI: 19.4 µM
KM12 colon
  GI50: 1.07 µM
  TGI: > 100 µM
OVCAR-8 ovarian
  GI50: 0.453 µM
  TGI: > 100 µM
M14 melanoma
  GI50: 0.746 µM
  TGI: > 75.2 µM
A498 renal
  GI50: 1.46 µM
  TGI: 9.43 µM

## COc1cc(C2c3cc4c(cc3[C@@H](NC3CCN(Cc5ccccc5)CC3)C3COC(=O)[C@H]23)OCO4)cc(OC)c1O (some centres undefined)
K-562 leukemia
  GI50: 0.266 µM and 0.122 µM
  TGI: 12.8 µM and 2.84 µM
HCT-15 colon
  TGI: 0.536 µM and 0.432 µM
SNB-19 CNS
  TGI: 22.4 µM and 2.94 µM
HOP-62 NSCLC
  TGI: 0.206 µM and 0.146 µM
SK-MEL-28 melanoma
  TGI: 2.84 µM and 1.57 µM
NCI-H226 lung
  TGI: 0.101 µM and 0.0535 µM
KM12 colon
  TGI: 2.23 µM and 1.02 µM
OVCAR-8 ovarian
  TGI: 0.587 µM
M14 melanoma
  GI50: 0.18 µM and 0.0484 µM
  TGI: 0.744 µM and 0.346 µM
A498 renal
  TGI: 0.498 µM

## COC(=O)C1=C(C)NC(=S)NC1c1ccc(N(CCCl)CCCl)cc1Cl (centres undefined)
K-562 leukemia
  TGI: > 57.5 µM
HCT-15 colon
  TGI: > 66.5 µM
SNB-19 CNS
  TGI: > 100 µM
HOP-62 NSCLC
  TGI: > 100 µM
SK-MEL-28 melanoma
  TGI: > 100 µM
NCI-H226 lung
  TGI: > 45.7 µM
KM12 colon
  TGI: > 73.4 µM
OVCAR-8 ovarian
  TGI: > 100 µM
M14 melanoma
  TGI: > 87.9 µM
A498 renal
  GI50: 46.9 µM
  TGI: > 100 µM

## Cc1ccc(/C=C2\CCCCC2=O)cc1
K-562 leukemia
  TGI: 77.4 µM
HCT-15 colon
  TGI: > 100 µM
HOP-62 NSCLC
  TGI: > 100 µM
SK-MEL-28 melanoma
  TGI: > 100 µM
OVCAR-8 ovarian
  TGI: > 100 µM
M14 melanoma
  TGI: > 100 µM
A498 renal
  TGI: > 100 µM

## Cc1ccc2ccccc2c1CSc1nc(N)nc2c1ncn2CC(C)C
K-562 leukemia
  TGI: > 100 µM
HCT-15 colon
  TGI: > 100 µM
SNB-19 CNS
  TGI: > 100 µM
HOP-62 NSCLC
  TGI: > 100 µM
SK-MEL-28 melanoma
  TGI: > 100 µM
NCI-H226 lung
  TGI: 72.7 µM
KM12 colon
  TGI: > 100 µM
OVCAR-8 ovarian
  TGI: > 100 µM
M14 melanoma
  TGI: > 80.8 µM
A498 renal
  TGI: 99.6 µM

## CCC(O)CCCCCCCCCCCCCCC(=O)O (centres undefined)
K-562 leukemia
  TGI: > 100 µM
SNB-19 CNS
  TGI: > 100 µM
HOP-62 NSCLC
  TGI: > 100 µM
SK-MEL-28 melanoma
  TGI: > 100 µM
NCI-H226 lung
  TGI: > 100 µM
KM12 colon
  TGI: > 100 µM
OVCAR-8 ovarian
  TGI: > 100 µM
M14 melanoma
  TGI: > 100 µM
A498 renal
  TGI: > 100 µM

## COc1cc(/C=C2\[C@@H]3NC(Cc4c(OC)c(C)c(OC)c(OC)c43)C(=O)N2Cc2ccccc2)c(OC)c(C)c1OC
K-562 leukemia
  TGI: > 100 µM
SNB-19 CNS
  TGI: > 100 µM
HOP-62 NSCLC
  TGI: > 100 µM
SK-MEL-28 melanoma
  TGI: > 100 µM
NCI-H226 lung
  TGI: > 100 µM
KM12 colon
  TGI: > 100 µM
OVCAR-8 ovarian
  TGI: > 100 µM
M14 melanoma
  TGI: > 100 µM
A498 renal
  TGI: > 100 µM

## O=[N+]([O-])c1ccc2c(c1)C(N1CCN(CCO)CC1)Cc1ccc(F)cc1S2 (centres undefined)
K-562 leukemia
  TGI: 12.6 µM
HCT-15 colon
  TGI: 19 µM
SNB-19 CNS
  TGI: 24.6 µM
HOP-62 NSCLC
  TGI: 43.8 µM
SK-MEL-28 melanoma
  TGI: 6.06 µM
NCI-H226 lung
  TGI: 23.1 µM
KM12 colon
  TGI: 21.4 µM
OVCAR-8 ovarian
  TGI: 25.5 µM
A498 renal
  TGI: 25.8 µM

## CC1(c2ccc(F)cc2)C2C(=O)NC(=O)C1C(=O)NC2=O (centres undefined)
K-562 leukemia
  TGI: > 100 µM
HCT-15 colon
  TGI: > 100 µM
SNB-19 CNS
  TGI: > 100 µM
SK-MEL-28 melanoma
  TGI: > 100 µM
NCI-H226 lung
  TGI: > 100 µM
KM12 colon
  TGI: > 100 µM
OVCAR-8 ovarian
  TGI: > 100 µM
M14 melanoma
  TGI: > 100 µM
A498 renal
  TGI: > 100 µM

## O=C(NC1CCC[C@H]1OC(=O)c1ccccc1)c1ccccc1 (some centres undefined)
K-562 leukemia
  TGI: > 100 µM
SNB-19 CNS
  TGI: > 100 µM
SK-MEL-28 melanoma
  TGI: > 100 µM
NCI-H226 lung
  TGI: 96.1 µM
KM12 colon
  TGI: > 100 µM
OVCAR-8 ovarian
  TGI: > 100 µM
M14 melanoma
  TGI: > 100 µM
A498 renal
  TGI: > 100 µM

## CCO/C=C\C12CCCC1NC(c1ccccc1)(c1ccccc1)O2 (centres undefined)
K-562 leukemia
  TGI: 56.7 µM
SNB-19 CNS
  TGI: > 100 µM
HOP-62 NSCLC
  TGI: > 100 µM
SK-MEL-28 melanoma
  TGI: > 100 µM
NCI-H226 lung
  TGI: > 100 µM
KM12 colon
  TGI: > 100 µM
OVCAR-8 ovarian
  TGI: > 100 µM
M14 melanoma
  TGI: 66 µM
A498 renal
  TGI: > 100 µM
